Results: PubChem BioAssay (NCI)
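Dose response: 5 concentrations. Exposure: 48 h. Format: 96-well plates. Endpoint: linear interpolation; highest concentration if not reached. TGI denotes the concentration required for complete inhibition of growth.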

Tests used:
Experiment in all cases: NCI tumour cell line growth inhibition, 48 h
MCF7 breast = test system: MCF7 breast
MDA-N = test system: MDA-N
A549 NSCLC = test system: A549 NSCLC
LOX IMVI melanoma = test system: LOX IMVI melanoma
HS 578T breast = test system: HS 578T breast
RPMI-8226 leukemia = test system: RPMI-8226 leukemia
UO-31 renal = test system: UO-31 renal
HL-60(TB) leukemia = test system: HL-60(TB) leukemia
SW-620 colon = test system: SW-620 colon
MOLT-4 leukemia = test system: MOLT-4 leukemia
HCT-116 colon = test system: HCT-116 colon
NCI-H460 lung = test system: NCI-H460 lung
SN12C renal = test system: SN12C renal
NCI-H23 lung = test system: NCI-H23 lung
MDA-MB-435 = test system: MDA-MB-435
SNB-75 CNS = test system: SNB-75 CNS
NCI/ADR-RES ovarian = test system: NCI/ADR-RES ovarian
A498 renal = test system: A498 renal
TK-10 renal = test system: TK-10 renal

CN(CCCN1CCCC1)CCCN(C)C(=O)Cc1ccc(Cl)c(Cl)c1
TGI (MCF7 breast): 31.6 µM
TGI (MDA-N): 16 µM
TGI (A549 NSCLC): > 53.6 µM
TGI (LOX IMVI melanoma): 27.9 µM
TGI (HS 578T breast): 36 µM
TGI (RPMI-8226 leukemia): 22.4 µM
TGI (UO-31 renal): 9.64 µM
TGI (HL-60(TB) leukemia): 37.1 µM
TGI (SW-620 colon): 50.7 µM
TGI (MOLT-4 leukemia): 32.4 µM
TGI (HCT-116 colon): 39.3 µM
TGI (NCI-H460 lung): 33.8 µM
TGI (SN12C renal): 70.2 µM
TGI (NCI-H23 lung): 54.8 µM
TGI (MDA-MB-435): 11.7 µM
TGI (SNB-75 CNS): 42.6 µM
TGI (NCI/ADR-RES ovarian): > 100 µM
TGI (A498 renal): 28.1 µM
TGI (TK-10 renal): 32.1 µM

COC(=O)C1=C(C(=O)OC)N(c2ccncc2)C(c2ccco2)=CC1c1ccccc1[N+](=O)[O-] (centres undefined)
TGI (MCF7 breast): 7.06 µM
TGI (MDA-N): 7.51 µM
TGI (A549 NSCLC): 31.3 µM
TGI (LOX IMVI melanoma): 3.35 µM
TGI (HS 578T breast): 27.8 µM
TGI (RPMI-8226 leukemia): 5.69 µM
TGI (UO-31 renal): 8.21 µM
TGI (HL-60(TB) leukemia): 6.06 µM
TGI (MOLT-4 leukemia): 6.17 µM
TGI (HCT-116 colon): 2.7 µM
TGI (NCI-H460 lung): 14.7 µM
TGI (SN12C renal): 9.72 µM
TGI (NCI-H23 lung): 29.8 µM
TGI (MDA-MB-435): > 39.8 µM
TGI (SNB-75 CNS): 16.3 µM
TGI (NCI/ADR-RES ovarian): 56.1 µM
TGI (A498 renal): 14.1 µM
TGI (TK-10 renal): 6.85 µM

Nc1csc(-c2scc3c2OCCO3)c1N
TGI (MCF7 breast): 33.4 µM
TGI (MDA-N): 38.8 µM
TGI (A549 NSCLC): > 100 µM
TGI (LOX IMVI melanoma): 30.9 µM
TGI (HS 578T breast): > 100 µM
TGI (RPMI-8226 leukemia): > 100 µM
TGI (UO-31 renal): 33.4 µM
TGI (HL-60(TB) leukemia): 50.8 µM
TGI (SW-620 colon): 87.9 µM
TGI (MOLT-4 leukemia): > 100 µM
TGI (HCT-116 colon): 46.4 µM
TGI (NCI-H460 lung): 73.7 µM
TGI (SN12C renal): 37.4 µM
TGI (NCI-H23 lung): 35.6 µM
TGI (MDA-MB-435): 36.1 µM
TGI (NCI/ADR-RES ovarian): 61.7 µM
TGI (A498 renal): 36.6 µM
TGI (TK-10 renal): 87.3 µM

O=C1/C(=C\c2cccc(Oc3ccccc3)c2)SC(c2ccccc2)N1Cc1ccccc1 (centres undefined)
TGI (MCF7 breast): > 100 µM
TGI (MDA-N): 52.3 µM
TGI (A549 NSCLC): > 100 µM
TGI (LOX IMVI melanoma): 32 µM
TGI (HS 578T breast): 82.5 µM
TGI (RPMI-8226 leukemia): 57.4 µM
TGI (UO-31 renal): > 100 µM
TGI (HL-60(TB) leukemia): 78.3 µM
TGI (SW-620 colon): > 100 µM
TGI (MOLT-4 leukemia): 75.7 µM
TGI (HCT-116 colon): 34 µM
TGI (NCI-H460 lung): > 100 µM
TGI (SN12C renal): > 100 µM
TGI (NCI-H23 lung): 62.7 µM
TGI (MDA-MB-435): 76.2 µM
TGI (NCI/ADR-RES ovarian): 74.4 µM
TGI (A498 renal): > 100 µM
TGI (TK-10 renal): 99.5 µM

O=[N+]([O-])c1ccc2nc(/C=C(\O)c3ccccc3)c(NC34CC5CC(CC(C5)C3)C4)nc2c1
TGI (MCF7 breast): > 10 µM
TGI (MDA-N): > 10 µM
TGI (LOX IMVI melanoma): > 10 µM
TGI (HS 578T breast): > 10 µM
TGI (UO-31 renal): > 10 µM
TGI (SW-620 colon): > 10 µM
TGI (NCI-H460 lung): > 10 µM
TGI (SN12C renal): > 10 µM
TGI (NCI-H23 lung): > 10 µM
TGI (MDA-MB-435): > 10 µM
TGI (SNB-75 CNS): > 10 µM
TGI (NCI/ADR-RES ovarian): > 10 µM
TGI (A498 renal): > 10 µM
TGI (TK-10 renal): > 10 µM

Cc1ccc([N+](=O)[O-])cc1S(=O)(=O)Nc1ccc(C2=NN(C(=O)c3ccccc3)C(c3ccccc3O)C2)cc1 (centres undefined)
TGI (MCF7 breast): 26.7 µM
TGI (MDA-N): 88.1 µM
TGI (A549 NSCLC): 74.4 µM
TGI (LOX IMVI melanoma): 45.6 µM
TGI (HS 578T breast): > 100 µM
TGI (RPMI-8226 leukemia): > 100 µM
TGI (UO-31 renal): 76.6 µM
TGI (HL-60(TB) leukemia): 69.4 µM
TGI (SW-620 colon): > 100 µM
TGI (MOLT-4 leukemia): 51.5 µM
TGI (HCT-116 colon): 28.4 µM
TGI (SN12C renal): 33 µM
TGI (NCI-H23 lung): 35.5 µM
TGI (MDA-MB-435): > 100 µM
TGI (SNB-75 CNS): 41.4 µM
TGI (NCI/ADR-RES ovarian): > 100 µM
TGI (A498 renal): 60.6 µM
TGI (TK-10 renal): 28.5 µM

O=C(/C=C/c1ccc(O)c(O)c1)O[C@H]1CCCC[C@@H]1OC(=O)/C=C/c1ccc(O)c(O)c1
TGI (MCF7 breast): 70.2 µM
TGI (MDA-N): 26.5 µM
TGI (A549 NSCLC): > 100 µM
TGI (LOX IMVI melanoma): 17 µM
TGI (HS 578T breast): > 100 µM
TGI (RPMI-8226 leukemia): > 100 µM
TGI (UO-31 renal): 27.8 µM
TGI (SW-620 colon): 19.5 µM
TGI (MOLT-4 leukemia): > 100 µM
TGI (HCT-116 colon): 19 µM
TGI (NCI-H460 lung): > 100 µM
TGI (SN12C renal): 50.1 µM
TGI (NCI-H23 lung): 33.7 µM
TGI (MDA-MB-435): 27.1 µM
TGI (SNB-75 CNS): > 100 µM
TGI (NCI/ADR-RES ovarian): 91.2 µM
TGI (A498 renal): 43.2 µM
TGI (TK-10 renal): 57.7 µM

O=c1[nH]nc(Cc2ccc(Cl)cc2)n1CCO
TGI (MCF7 breast): > 100 µM
TGI (MDA-N): > 100 µM
TGI (A549 NSCLC): > 100 µM
TGI (LOX IMVI melanoma): > 100 µM
TGI (HS 578T breast): > 100 µM
TGI (RPMI-8226 leukemia): > 100 µM
TGI (UO-31 renal): > 100 µM
TGI (HL-60(TB) leukemia): > 100 µM
TGI (SW-620 colon): > 100 µM
TGI (MOLT-4 leukemia): > 100 µM
TGI (HCT-116 colon): > 100 µM
TGI (NCI-H460 lung): > 100 µM
TGI (SN12C renal): > 100 µM
TGI (NCI-H23 lung): > 100 µM
TGI (MDA-MB-435): > 100 µM
TGI (NCI/ADR-RES ovarian): > 100 µM
TGI (A498 renal): > 100 µM
TGI (TK-10 renal): > 100 µM

COc1c(OC)c(OC)c2c(=O)c(OC)c(-c3ccc4c(c3)OCO4)oc2c1OC
TGI (MCF7 breast): > 100 µM
TGI (MDA-N): > 100 µM
TGI (A549 NSCLC): > 100 µM
TGI (LOX IMVI melanoma): > 100 µM
TGI (HS 578T breast): > 100 µM
TGI (UO-31 renal): > 100 µM
TGI (HL-60(TB) leukemia): 33.4 µM
TGI (SW-620 colon): > 100 µM
TGI (MOLT-4 leukemia): > 100 µM
TGI (HCT-116 colon): > 100 µM
TGI (NCI-H460 lung): > 100 µM
TGI (SN12C renal): > 100 µM
TGI (NCI-H23 lung): > 100 µM
TGI (MDA-MB-435): > 100 µM
TGI (SNB-75 CNS): > 100 µM
TGI (NCI/ADR-RES ovarian): > 100 µM
TGI (A498 renal): > 100 µM
TGI (TK-10 renal): > 100 µM

N#Cc1n[nH]n(-c2ccccc2)c1=O
TGI (MCF7 breast): > 100 µM
TGI (MDA-N): > 100 µM
TGI (A549 NSCLC): > 100 µM
TGI (LOX IMVI melanoma): > 100 µM
TGI (HS 578T breast): > 100 µM
TGI (RPMI-8226 leukemia): > 100 µM
TGI (UO-31 renal): > 100 µM
TGI (HL-60(TB) leukemia): > 100 µM
TGI (SW-620 colon): > 100 µM
TGI (MOLT-4 leukemia): > 100 µM
TGI (HCT-116 colon): > 100 µM
TGI (SN12C renal): > 100 µM
TGI (NCI-H23 lung): > 100 µM
TGI (MDA-MB-435): > 100 µM
TGI (SNB-75 CNS): > 100 µM
TGI (NCI/ADR-RES ovarian): > 100 µM
TGI (A498 renal): > 100 µM
TGI (TK-10 renal): > 100 µM

CC(=S)NC=C(C(N)=O)C(N)=O
TGI (MCF7 breast): > 100 µM
TGI (MDA-N): > 100 µM
TGI (A549 NSCLC): > 100 µM
TGI (LOX IMVI melanoma): > 100 µM
TGI (HS 578T breast): > 100 µM
TGI (RPMI-8226 leukemia): > 100 µM
TGI (HL-60(TB) leukemia): > 100 µM
TGI (SW-620 colon): > 100 µM
TGI (MOLT-4 leukemia): > 100 µM
TGI (HCT-116 colon): > 100 µM
TGI (SN12C renal): > 100 µM
TGI (NCI-H23 lung): > 100 µM
TGI (MDA-MB-435): > 100 µM
TGI (SNB-75 CNS): > 100 µM
TGI (NCI/ADR-RES ovarian): > 100 µM
TGI (A498 renal): > 100 µM

CN(C(=O)C12C3(C(=O)O)C4C5(C(=O)O)C3C1(C(=O)O)C5C42C(=O)O)C(C)(C)C (centres undefined)
TGI (MCF7 breast): > 100 µM
TGI (MDA-N): > 100 µM
TGI (A549 NSCLC): > 100 µM
TGI (LOX IMVI melanoma): > 100 µM
TGI (HS 578T breast): > 100 µM
TGI (UO-31 renal): > 100 µM
TGI (HL-60(TB) leukemia): > 100 µM
TGI (SW-620 colon): > 100 µM
TGI (MOLT-4 leukemia): > 100 µM
TGI (HCT-116 colon): > 100 µM
TGI (NCI-H460 lung): > 100 µM
TGI (SN12C renal): > 100 µM
TGI (NCI-H23 lung): > 100 µM
TGI (MDA-MB-435): > 100 µM
TGI (SNB-75 CNS): > 100 µM
TGI (NCI/ADR-RES ovarian): > 100 µM
TGI (A498 renal): > 100 µM
TGI (TK-10 renal): > 100 µM

OCCCN=C1N=C(Cl)/C(=C\c2ccccc2)N1
TGI (MCF7 breast): > 100 µM
TGI (MDA-N): > 100 µM
TGI (A549 NSCLC): > 100 µM
TGI (LOX IMVI melanoma): > 100 µM
TGI (HS 578T breast): > 100 µM
TGI (RPMI-8226 leukemia): > 100 µM
TGI (UO-31 renal): > 100 µM
TGI (HL-60(TB) leukemia): > 100 µM
TGI (SW-620 colon): > 100 µM
TGI (MOLT-4 leukemia): > 100 µM
TGI (HCT-116 colon): > 100 µM
TGI (SN12C renal): > 100 µM
TGI (NCI-H23 lung): > 100 µM
TGI (MDA-MB-435): > 100 µM
TGI (SNB-75 CNS): > 100 µM
TGI (NCI/ADR-RES ovarian): > 100 µM
TGI (A498 renal): > 100 µM
TGI (TK-10 renal): > 100 µM
